Here are results for two molecules from US20230226198A1, “Artemisinin Derivatives” (DA ZEN THERANOSTICS, INC., priority 2019, published 2023).

One assay has as its system BxPC3 cells. In words: MTT cell viability / IC50 assay, BxPC3. It counts as cell-based. The following applies: Homo sapiens, BXPC-3; BxPC3, 48 h. As for the experimental part:
Cell culture: In the following examples, unless otherwise specified, all cell lines are purchased from American Type Culture Collection and cultured in American Type Culture Collection (ATCC)-recommended media, with fetal bovine serum (FBS) to a final concentration of 10% and 1× penicillin/streptomycin at 37° C. with 5% CO2 in a cell culture incubator, unless otherwise specified. Unless otherwise specified, culture is 2D. Where culture is 3D, low attachment plates are used, with the same media. C4-2B (ATCC® CRL-3315™, human prostate cancer cells of epithelial morphology) parental cell line and drug-resistant cells derived therefrom) are cultured in RPMI-1640 with 10% FBS. MDVR cells (an Enzalutamide-resistant variety of C4-2B prostate cancer cells formed as described below) are cultured as indicated for the parental C4-2B cells. Caki-1 cells (human clear cell renal cell carcinoma cells) are cultured in ATCC-formulated McCoy's 5a Medium Modified (ATCC Catalog No. 30-2007) with 10% FBS. […]
Each of the cell lines is treated either with a THAD (e.g. DZ-DHA-ether, MI-148-bis-DHA), or for comparison, with the DHA mono-ester “DZ-DHA”; alternatively/additionally, DZ1 and/or unconjugated DHA may serve as comparants. […] The absorbance density of the supernatant is read on a 96-well microplate reader at wavelength 595 nm. […]

For assay [1], the system named is MDVR cells (Enzalutamide-resistant C4-2B prostate cancer cells). The assay is described as follows: MTT cell viability / IC50 assay, MDVR. It counts as cell-based. The following applies: Homo sapiens. Here is the method: Cell culture: In the following examples, unless otherwise specified, all cell lines are purchased from American Type Culture Collection and cultured in American Type Culture Collection (ATCC)-recommended media, with fetal bovine serum (FBS) to a final concentration of 10% and 1× penicillin/streptomycin at 37° C. with 5% CO2 in a cell culture incubator, unless otherwise specified. Unless otherwise specified, culture is 2D. Where culture is 3D, low attachment plates are used, with the same media. C4-2B (ATCC® CRL-3315™, human prostate cancer cells of epithelial morphology) parental cell line and drug-resistant cells derived therefrom) are cultured in RPMI-1640 with 10% FBS. MDVR cells (an Enzalutamide-resistant variety of C4-2B prostate cancer cells formed as described below) are cultured as indicated for the parental C4-2B cells. Caki-1 cells (human clear cell renal cell carcinoma cells) are cultured in ATCC-formulated McCoy's 5a Medium Modified (ATCC Catalog No. 30-2007) with 10% FBS. PC3 cells (ATCC® CRL-1435™, a human prostate cancer cell line of epithelial morphology initiated from a bone metastasis of a grade IV prostatic adenocarcinoma) are cultured in F-12K with 10% FBS. 22RV1 Prostate Cancer (PC) cells (ATCC® CRL-2505™, a human prostate carcinoma cell line of epithelial morphology) are cultured in RPMI-1640 with 10% FBS. DU145 cells (ATCC® HTB-81™, a human cell line derived from a prostate-originating brain metastase, not detectably hormone sensitive, not expressing prostate antigen; forms adenocarcinoma grade II in nude mice) are cultured in ATCC-formulated Eagle's Minimum Essential Medium (EMEM, Catalog No. 30-2003). H446 cells (ATCC® HTB-171™, a human small cell carcinoma SC lung cancer (SCLC) cell line derived from a metastatic site) are cultured in RPMI-1640 with 10% FBS. H358 cells (ATCC® CRL-5807™, a human non-small cell lung cancer (NSCLC) cell line that expresses protein and RNA of SP-A, the major lung surfactant associated protein, and produces tumors in athymic nude mice) are cultured in RPMI-1640 Medium with 10% FBS. BxPC3 cells (ATCC® CRL-1687™, an adenocarcinoma-derived pancreatic cancer cell line that expresses pancreas cancer specific antigen and carcinoembryonic antigen and forms tumors in nude mice) are cultured in RPMI-1640 with 10% FBS.
Resistant prostate cancer cell lines MDVR and AbiR: MDVR cells are Enzalutamide-resistant cells, AbiR are Abiraterone acetate resistant cells, formed from parental C4-2B prostate cancer cells as follows. A cell assay is performed exposing cells cultured as described above to various drugs indicated below for 72 hours. Parental C4-2B cells are C4-2B non-resistant cells not previously exposed to cancer drugs. Drug-resistant C4-2B cells are created by prolonged exposure to the relevant drug, i.e. Enzalutamide for MDVR, and Abiraterone acetate for AbiR cells, at initially sub-lethal and gradually increasing concentrations until resistance is achieved.
Example 1: A cell assay is performed exposing cells cultured as described above to various drugs indicated below for 24 hours unless otherwise indicated. Each of the cell lines is treated either with a THAD (e.g. DZ-DHA-ether, MI-148-bis-DHA), or for comparison, with the DHA mono-ester “DZ-DHA”; alternatively/additionally, DZ1 and/or unconjugated DHA may serve as comparants. For each cell line, the IC50 is determined for each drug in concentrations from 0 to 100 μM. […] In the controls (not shown in the figures), the cells are exposed to DMSO (vehicle) for a final concentration that equals the highest concentration of the drug tested, to a maximum concentration less than 0.1% v/v. 4 hours before culture end/SDS addition, 10 μL MTT (3-(4,5-Dimethyl-2-thiazolyl)-2,5-diphenyl-2H-tetrazolium bromide, Sigma-Aldrich) is added to wells containing the cells. At the end of culture, 100 μl 10% SDS is added and then the plate containing the cells is placed in a 37° C. cell culture incubator for 8 hours. […]

Like-named read-outs stand apart in the source and are kept apart here.

Regarding `C[C@@H]1CC[C@H]2[C@@H](C)C(OC(=O)CCCCCN3/C(=C/C=C4\CCCC(/C=C/C5=[N+](CCCCS(=O)(=O)[O-])c6ccccc6C5(C)C)=C4Cl)C(C)(C)c4ccccc43)O[C@@H]3OC4(C)CC[C@@H]1[C@]32OO4` (stereo in doubt) [DZ3a], the IC50 in the assay with BxPC3 cells is 9.8 µM; in assay [1] (ENZ-resistant C4-2B cells (MDVR), unit inferred, read-out: IC50 (FIG. 2B description)) it was 3.8 µM; in assay [1] (MDVR, 24 hours, relative IC50, read-out: IC50) it was 3.8 to 5.9 µM; in assay [1] (MDVR, 48 h, read-out: IC50), 5.9 µM.
Regarding `C[C@H]1[C@@H](O)O[C@@H]2O[C@@]3(C)CC[C@H]4[C@H](C)CC[C@@H]1[C@@]24OO3` [DHA, dihydroartemisinin], the half-maximal inhibitory concentration (IC50) in the assay on BxPC3 cells was found to be 50.7 µM; in assay [1] (MDVR, 48 h, read-out: IC50) it was 390 µM.

One may read the IC50 as the concentration that gives 50% inhibition.
